In patent publication US20260217702A1, “NOVEL IMIDAZOQUINOLINES WITH IMMUNOSTIMULATORY EFFECTS” (Synovo GmbH, priority 2022, published 2026):

Tests used:
[1] = system: IFNa relative to TNFa; assay: Stimulation of cytokines in vivo (plasma cytokines, cytometric bead array); settings: female C57B6/J mice, i.p., 12 μmol/kg, citrate in saline, EDTA plasma at various times; reference Resiquimod
Method: Female C57B6/J mice ca 18-20g ca. 8 weeks old are treated i.p. with E1 or E13 (citrate in saline) at a dose of12 μmol/kg. The reference substance is Resiquimod. At various times after application blood samples of approximately 25 μl are taken from the tail vein. The resulting EDTA plasma is analysed for cytokines using a cytometric bead array.

[2] = system: CT26 tumor; assay: Application in cancer therapy: CT26 tumor in BALBc mice; format: in vivo; settings: i.p.
Method: Female BALBc mice carrying the CT26 tumor type are monitored until tumors are 100-150 mm^3 in volume. Animals are treated via injection i.p. with substances formulated at citrate salts in saline solution. Doses for E 1 are 3, 6 and 12 μmol/kg. At 12 μmol/kg, weight loss of ca. 5% is observed within 24 h. […] In a similar format, Female C57B6 mice carrying the MC38 tumor type co-injected with myofibroblasts (5 fibroblasts: 1 tumor cell-50,000, tumor cells) are monitored until tumors are 100-150 mm^3 in volume. Animals are treated via injection i.p. with either Vehicle or a Rat anti-PD-1 antibody (RMP1-14-CP157) 100 μg, or peritumoral 20 or 50 μg every 96 h. Certain groups receive the antibody alone, or receive in addition, E1 6 μmol/kg or E13 6 μmol/kg, other groups receive E1 and E13 alone at the same dose. Weight loss is similar to the study above and is between 5 and 8% of the starting weight for all treatments. Tumors treated with E1 or E13 alone remain static or decrease in size by up to 30% in size for up to 72 h following treatment. Tumors treated with E1 or E13 in combination with antiPD-1 decline (2 from 8) or are eliminated completely (6 from 8 animals) after the third antibody treatment.

SMILES	secretion of IFNa relative to TNFa (ratio) compared to the reference [1]	tumor size following treatment ([2]; CT26 tumors 100-150 mm^3 at start, doses 3, 6 and 12 μmol/kg, for up to 72 h following treatment)	weight loss ([2]; female BALBc mice with CT26 tumor, citrate salt in saline, 12 μmol/kg, within 24 h)
CCCCc1nc2c(N)nc3ccccc3c2n1CC1CCNCC1 [Example E1, 2-butyl-1-(piperidin-4-ylmethyl)-1H-imidazo[4,5-c]quinolin-4-amine]	higher ratio	remain static in size	ca. 5%
CCCCc1nc2c(N)nc3ccccc3c2n1CCC1CCN(C(=O)CN(C)CC(=O)N(C)[C@H]2C[C@@H](C)O[C@@H](C[C@@H]3[C@@H](C)[C@H](O[C@H]4C[C@@](C)(OC)[C@@H](O)[C@H](C)O4)[C@@H](C)C(=O)O[C@H](CC)[C@@](C)(O)[C@H](O)[C@@H](C)N(C)C[C@H](C)C[C@@]3(C)O)[C@@H]2O)CC1 [Example E13]	higher ratio		
